Tests used:
AGE-BSA = target: T1, AGE-BSA (Bos taurus, UniProt P02769); experiment: In-vitro AGE breaking activity by ELISA; assay type: biochemical, Bovine; settings: 37° C., 24 hours
T1 construct: Bovine serum albumin (fraction V) (BSA); from tissue; host or cells: bovine serum (fraction V); glycated in house with 1.6 M glucose at 37 °C for 16 weeks
Description: AGE breaking activity has been confirmed by the screening procedure as mentioned below:
Methods of experiment: Elisa (Enzyme Linked Immunosorbent Assay)
160 mg/ml of protein, bovine serum albumin, BSA and 1.6M glucose sugar were dissolved in phosphate buffered saline, PBS. Sodium azide was added at 0.02% concentration as a preservative. The solution was filtered asceptically through a […] filter and kept for aging at 37° C. for 16 weeks. After 16 weeks the solution was dialyzed against PBS, aliquoted and stored at −20° C.
To determine the AGE breaking activity, 10 μg/ml of the 16 weeks AGE-BSA was incubated with different concentrations of the test compounds at 37° C. for 24 hours and AGE breaking activity of the test compounds by ELISA was determined.
ELISA was performed as follows
1. Different concentrations of 16 weeks AGE-BSA were coated on a microtiter plate as standard. Each concentration is coated in triplicates.
2. The test samples were coated on microtiter plate at a concentration of 5 ng to 20 ng per well in triplicates
3. The plate was incubated at 37° C. for one hour.
4. After incubation the plate was washed with PBST (PBS with 0.05% Tween 20).
5. Blocking with 5% skimmed milk in PBS at 37° C. for one hour was done.
6. The plate was washed with PBST.
7. Primary antibody against AGE-BSA was added and the plate is incubated at 37° C. for one hour.
8. The plate was washed with PBST
9. Secondary antibody anti rabbit HRPO (Horse-Radish Per Oxidase) conjugate was added and the plate is incubated at 37° C. for one hour.
10. The plate was washed with PBST.
11. Colour development with OPD (orthophenylenediamine dihydrochloride) and hydrogen peroxide was done.
12. OD (optical density) at (450 nm reading-620 nm reading) was measured after incubation at 37° C. for 15 minutes with Microplate ELISA Reader
The breaker activity of the compounds were determined by the following formula: [formula]
OD450-620Control=Absorbance of 20 ng AGE-BSA after incubation at 37° C. for 24 hours without test compound
OD450-620Test=Absorbance of 20 ng AGE-BSA after incubation at 37° C. for 24 hours with required concentration of test compound
Using specific examples, the % AGE breaking activity was calculated and recorded in Table 2.

[1] = Free radical scavenging activity on ABTS radical cation; assay type: biochemical
Description: This method measures the relative ability of free radical scavenging substances to scavenge the ABTS^.+ i.e. 2,2-Azino-bis-(3-ethyl benzo thiazoline-6-sulfonate) radical cation as compared to a standard amount of standard or free radical scavengers antioxidants. Incubation of ABTS with Peroxidase (metmyoglobin) and hydrogen peroxide results in the production of radical cation ABTS^.+. This species is blue-green in colour and can be detected at 730 nm. Antioxidants or free radical scavengers in the added sample that causes suppression of the color to a degree that is proportional to their concentration.
Preparation of Buffer Solutions
A. Phosphate Citrate Buffer (pH 5.0). 48.5 ml of 0.1M citric acid with sufficient 0.2M disodium hydrogen phosphate to produce 100 ml.
B. Phosphate Buffer Saline (PBS): Dissolve 40.0 g of NaCl, 1.0 g of KCl, 1.0 g of KH2PO4 and 3.05 g of Na2HPO4 in 1 liter milli-Q water. Dilute 200 ml of above solution to 1 liter with milli-Q water (pH 7.4-7.6).
C. 3 μM stock solution of Peroxidase was prepared in phosphate buffer saline pH 7.4(PBS).
D. 1.08 mM stock solution of Hydrogen peroxide was prepared in phosphate buffer saline pH 7.4 (PBS).
Preparation of ABTS Stock Solution
1 tablet (10 mg) was dissolved in phosphate citrate buffer (pH 5.0).
Preparation of ABTS Working Solution
5.0 ml of ABTS stock solution was diluted with PBS to 20 ml.
Preparation of Horse Radish Peroxidase Stock Solution
320 μg of the enzyme was dissolved in 2.5 ml of PBS.
Preparation of Hydrogen Peroxide (1.08 mM) Solution
12 μl of Hydrogen Peroxide (30% w/v) was diluted to 100 ml with PBS. […]
Preparation of ABTS Radical Stock Solution
To 18 ml of ABTS stock solution, 100 μl of Horseradish Peroxidase stock solution was added.
As soon as 1.5 ml of hydrogen peroxide solution was added to the above solution, blue-green colour of the ABTS radicals appeared. This solution was incubated at 30° C. for 30 min.
Preparation of Control Solution
980 μl of ABTS radical stock solution was added to an eppendorf tube. To it was added 100 μl of various PBS solution.
Preparation of test Solution
980 μl of ABTS radical stock solutions were added to different eppendorf tubes. To it were added 100 μl of various concentrations of drug solution.
Measurement of Absorbance (O.D)
The absorbance of control and test samples was recorded immediately at 730 nm taking PBS as blank.
Calculation: The percent antioxidant activity was calculated according to the formula. % Antioxidant activity=[O.D of test sample/O.D of control*100]−100.

T1 sequence (P02769 25-607): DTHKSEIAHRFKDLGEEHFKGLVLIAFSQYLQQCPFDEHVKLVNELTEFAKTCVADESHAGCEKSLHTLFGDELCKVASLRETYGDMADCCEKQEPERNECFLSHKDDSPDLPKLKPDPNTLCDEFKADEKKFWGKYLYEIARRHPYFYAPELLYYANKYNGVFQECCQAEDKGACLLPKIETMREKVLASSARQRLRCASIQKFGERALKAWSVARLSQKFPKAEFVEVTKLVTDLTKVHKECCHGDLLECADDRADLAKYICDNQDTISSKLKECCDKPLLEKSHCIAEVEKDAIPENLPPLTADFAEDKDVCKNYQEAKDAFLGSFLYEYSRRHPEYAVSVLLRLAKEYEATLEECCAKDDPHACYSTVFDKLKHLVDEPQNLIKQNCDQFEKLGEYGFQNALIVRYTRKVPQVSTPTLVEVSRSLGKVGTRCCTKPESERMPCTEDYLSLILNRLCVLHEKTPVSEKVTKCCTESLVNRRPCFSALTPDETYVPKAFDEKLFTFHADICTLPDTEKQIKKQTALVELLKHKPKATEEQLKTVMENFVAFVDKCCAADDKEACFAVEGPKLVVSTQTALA

Row | SMILES | % Breakage (AGE-BSA; 10 mM test compound) [%] | % Breakage (AGE-BSA; 25 mM test compound) [%] | % Breakage (AGE-BSA; 20 mM test compound) [%] | % Breakage (AGE-BSA; 2.5 mM test compound) [%] | Relative Free Radical Scavenging Activity (%) on ABTS ([1]; 11.5 μM) [%] | Relative Free Radical Scavenging Activity (%) on ABTS ([1]; 23.0 μM) [%] | Relative Free Radical Scavenging Activity (%) on ABTS ([1]; 46.0 μM) [%] | Relative Free Radical Scavenging Activity (%) on ABTS ([1]; 92.5 μM) [%] | Relative Free Radical Scavenging Activity (%) on ABTS ([1]; 925 μM) [%]
1 | O=C(C[n+]1cccc(C(=O)NCCOC(=O)c2ccccc2)c1)Nc1ccccc1.[Cl-] [Compound 23, 1-(2-phenylamino-2-oxoethyl)-3-((benzoyloxy)ethylaminocarbonyl)pyridinium chloride] | 37 | 90 | – | – | – | – | – | – | –
2 | CCOC(=O)C[n+]1cccc(C(=O)NCCO)c1.[Br-] [Compound 87, 1-(2-Ethoxy-2-oxoethyl)-3-((2-hydroxyethyl)aminocarbonyl)pyridinium bromide] | 43 | – | – | – | – | – | – | – | –
3 | O=C(C[n+]1ccsc1)c1ccccc1.[Br-] [PTB, reference compound] | 27 | – | 47 | – | – | – | – | – | –
4 | Cc1ccc(C(=O)NNC(=O)c2ccc[n+](CC(=O)c3cccs3)c2)c[n+]1CC(=O)c1cccs1.[Cl-].[Cl-] [Compound 49, 1-[1-(2-thien-2′yl-2-oxoethyl)-6-methyl-3-carbonylpyridinium]-2-[1-(2-Thien-2′-yl-2-oxoethyl)-3-carbonylpyridinium]hydrazine dichloride] | – | – | – | 85.67 | – | – | – | – | –
5 | CCOC(=O)C1CSCN1C(=O)C[n+]1cccc(C(=O)NNS(C)(=O)=O)c1.[Cl-] (centres unmarked) [Compound 61, 1-(2-(4-carboethoxy-thiazolidin-3-yl)-2-oxoethyl)-3-(methanesulfonyl hydrazinocarbonyl)pyridinium chloride] | 25.06 | – | – | – | – | – | – | – | –
6 | O=C=Nc1ccc[n+](CC(=O)c2ccc(Cl)cc2Cl)c1.[Br-] [Compound 82, 3-Carbonylamino-1-(2-(2,4-dichlorophenyl)-2-oxoethyl)-pyridinium bromide] | – | – | – | – | 26.0 | 44.3 | 62.7 | 75.5 | 100
7 | O=C(C[n+]1cccc(C(=O)c2ccccc2)c1)c1ccccc1.[Br-] [Compound 98, 1-(2-Phenyl-2-oxoethyl)-3-(1-phenyl-1-oxomethyl)pyridinium bromide] | – | – | – | – | 7.1 | 26.9 | 51.1 | 78.6 | 99.1
8 | O=C(C[n+]1cccc(C(=O)NNS(=O)(=O)Cc2ccccc2)c1)c1ccccc1.[Br-] [Compound 31, 1-(2-phenyl-2-oxoethyl)-3-((phenylmethyl)sulfonyl hydrazinocarbonyl)pyridinium bromide] | – | – | – | – | 41.6 | 57.7 | 66.9 | 99.2 | 100
9 | NC(=O)c1cccnc1 [Niacinamide, reference compound] | – | – | – | – | 0.0 | 2.2 | 3.8 | 3.8 | 9.2
10 | Cc1ccc(S(=O)(=O)NNC(=O)c2ccc[n+](CC(=O)Nc3ccccc3)c2)cc1.[Cl-] [Compound 27, 1-(2-phenylamino-2-oxoethyl)-3-((4-methylphenyl)sulfonyl hydrazinocarbonyl)pyridinium chloride] | – | – | – | – | 43.9 | 55.5 | 75.3 | 99.6 | 100
11 | O=C(NCCOC(=O)c1ccccc1)c1ccc[n+](CC(=O)c2cccs2)c1.[Br-] [Compound 36, 1-(2-thien-2′-yl-2-oxoethyl)-3-[2-(benzoyloxy)ethylaminocarbonyl]-pyridinium bromide] | – | – | – | – | 27.6 | 59.2 | 74.2 | 83.9 | 100
12 | CCCCNC(=O)c1ccc[n+](CC(=O)c2ccc(Cl)cc2Cl)c1.[Br-] [Compound 97, 1-(2-(2,4-Dichlorophenyl)-2-oxoethyl)-3-(n-butylamino-carbonyl)pyridinium bromide] | – | – | – | – | 16.5 | 27 | 37.8 | 44.5 | 97.8
13 | O=C(NCCOC(=O)c1ccccc1)c1cc[n+](CC(=O)c2cccs2)cc1.[Br-] [Compound 18, 1-(2-thien-2′-yl-2-oxoethyl)-4-(2-(benzoyloxy)ethylaminocarbonyl)pyridinium bromide] | – | – | – | – | 41.8 | 59.5 | 75.2 | 91.0 | 100
14 | O=C(NCCOC(=O)c1ccccc1)c1ccc[n+](CC(=O)c2ccc(Cl)cc2Cl)c1.[Br-] [Compound 8, 1-(2-(2′,4′-dichlorophenyl)-2-oxoethyl)-3-(2-(benzoyloxy)ethylamino-carbonyl)pyridinium bromide] | – | – | – | – | 40.8 | 53.7 | 72.6 | 81.2 | 100
15 | O=C(CCC1CCCCC1)NNC(=O)c1ccc[n+](CC(=O)c2cccs2)c1.[Br-] [Compound 34, 1-(2-thien-2′-yl-2-oxoethyl)-3-((2-(1-oxo-3-cyclohexyl)-ethyl)-hydrazinocarbonyl)-pyridinium bromide] | – | – | – | – | 50.3 | 53.8 | 65.4 | 80.4 | 100
16 | O=C1CCCC(CCNNC(=O)c2ccc[n+](CC(=O)Nc3ccccc3)c2)C1.[Br-] (centres unmarked) [Compound 35, 1-(2-phenylamino-2-oxoethyl)-3-({2-(1-oxo-3-cyclohexyl)-ethyl}-hydrazinocarbonyl}pyridinium bromide] | – | – | – | – | 50.5 | 63.4 | 80.9 | 90.6 | 100

From patent publication US20020103228A1, “Composition and method for use of pyridinium derivatives in cosmetic and therapeutic applications” (TORRENT PHARMACEUTICALS LTD., priority 1999, published 2002)
